Measurements from patent publication US10730022B2, “Process for the separation of organic compounds” (VITO NV, priority 2015, dated 2020).
Values joined by “and” are separate entries in the source; they are usually repeats but may differ in a detail not shown here. Identical values can stand only once.

How the values were obtained:
[1] = cited from earlier work
[2] = membrane contactor extraction of transamination reaction mixture in organic solvent into pH 3 sodium acetate buffer (Example 3); assay type: physicochemical; conditions: organic solvent feed, pH 3 sodium acetate extracting solution
Experimental: An enzymatically catalysed transamination reaction is performed in an organic solvent, using benzyl acetone (BA) and isopropyl amine (IPA) as respectively substrate ketone and substrate amine. […] The resulting products are acetone (as co-product ketone) and (S-)1-methyl-3-phenylpropylamine (S-MPPA—a chiral amine). This reaction is prone to product inhibition by MPPA.
The reaction mixture is passed through a membrane contactor module, using an acidic sodium acetate buffer (pH 3) as extracting solution.

[3] = membrane contactor extraction of MPPA/IPA mixture from pH 10 feed into pH 3 sodium acetate collection solution (Example 2); assay type: physicochemical; conditions: pH 3 collection, 30° C., 20 l/h, 300 to 500 mbar
Experimental: A mixture of isopropyl amine (IPA) and 1-methyl-3-phenylpropylamine (MPPA) in a pH 10 aqueous buffer (feed solution) was applied to a first compartment of a membrane contactor module, with the second compartment comprising a sodium acetate buffer (pH 3) (collection solution). The membrane separation was performed at a flow rate of 20 l/h, temperature of 30° C. and transmembrane pressure of 300 to 500 mbar. Feed and collection solutions were continuously recycled in the membrane contactor module. The membrane used was a phenyl phosphonic acid functionalized ceramic membrane (as in Example 1), wherein both the external surface as the internal surface of the pores was linked to the organic moiety. The amine concentration in the extracting sodium acetate solution was followed up over time (FIG. 5).

[4] = octanol/water; cited from earlier work
[5] = % uncharged amine at pH 10, calculated using Henderson-Hasselbalch equation; assay type: physicochemical; conditions: for % uncharged at pH 10: calculated using Henderson-Hasselbalch equation; for uncharged/charged ratio of the amine at the pH of the feed solution: pH 10 feed
Experimental: Assuming that only the uncharged amine can pass through the membrane, the (theoretical) extractable amount can be calculated using the % uncharged amine at pH 10 (Table 1). For MPPA (596 mg in feed solution) and MBA (484 mg in the feed solution) this corresponds to 113 mg and 358 mg theoretical extractable amine, respectively. After 7 h, 15% of this amount was extracted for MPPA, while only 3% of this amount was extracted for MBA.

[6] = cited from earlier work; remark: listed apart in the source
[7] = membrane contactor extraction of MPPA/MBA mixture from pH 10 feed into pH 3 sodium acetate collection solution (Example 1); assay type: physicochemical; conditions: for time of membrane extraction after which amine was detected in the acidic extracting solution: MPPA/MBA mixture, pH 10 feed, pH 3 collection, 30° C., 20 l/h, 300-500 mbar; for % of theoretical extractable amount extracted: after 7 h; for theoretical extractable amine: from % uncharged at pH 10, 596 mg MPPA and 484 mg MBA in feed
Experimental: A mixture of MPPA and MBA in a pH 10 aqueous buffer (feed solution) was applied to a first compartment of a membrane contactor module, with the second compartment comprising a sodium acetate buffer (pH 3) (collection solution). The membrane separation was performed at a flow rate of 20 l/h, a temperature of 30° C. and a transmembrane pressure of 300-500 mbar. Feed and collection solutions were continuously recycled in the membrane contactor module. The membrane used was a phenyl phosphonic acid functionalized ceramic membrane, wherein both the external surface as the internal surface of the pores was linked to the organic moiety. […] The amine concentration in the extracting sodium acetate solution was followed up over time (FIG. 4).

CC(=O)CCc1ccccc1 [BA, benzyl acetone]
solubility in aqueous liquids [1]: 10 mM and 1.48 g/1

CC(C)N [IPA, isopropyl amine]
membrane passage behaviour [2]: mainly remains in the feed solution | time of membrane extraction after which amine was detected in the acidic extracting solution [3]: about 7 h | LogP [4]: 0.391 | % uncharged at pH 10 [5]: 16% | pKa [6]: 10.73

CNCc1ccccc1 [MBA, methylbenzylamine]
time of membrane extraction after which amine was detected in the acidic extracting solution [7]: 3.5 h | % of theoretical extractable amount extracted [7]: 3% | theoretical extractable amine [7]: 358 mg | LogP [4]: 1.7 | % uncharged at pH 10 [5]: 74% | uncharged/charged ratio of the amine at the pH of the feed solution [5]: ≈ 3 | pKa [6]: 9.54

CC(N)CCc1ccccc1 (stereo not shown) [MPPA, 1-methyl-3-phenylpropylamine]
time of membrane extraction after which amine was detected in the acidic extracting solution [7]: less than 1 h | % of theoretical extractable amount extracted [7]: 15% | theoretical extractable amine [7]: 113 mg | membrane passage behaviour [2]: efficiently passes the membrane | time of membrane extraction after which amine was detected in the acidic extracting solution [3]: less than 1 h | LogP [4]: 2.264 | % uncharged at pH 10 [5]: 19% | uncharged/charged ratio of the amine at the pH of the feed solution [5]: ≈ 0.25 | pKa [6]: 10.63
